Data published in patent publication US20190030018A1 (Celgene Corporation, priority 2017, published 2019).

Assays:
[1] = Solubility of Compound 1 in Kleptose solutions ('top-down' approach); assay type: physicochemical; settings: formic acid 1.65 mg/mL
Description: The Kleptose concentration varied from 30 to 100 mg/mL.

[2] = system: GSPT1 expression, mTOR activation, Mcl-1 expression and Caspase-3 cleavage in AML cells; assay: Immunoblot analysis of AML cells treated with Compound 1 and everolimus; assay type: cell-based; settings: AML cell lines HNT-34 and KG1, Compound 1 alone
Source text: Whole cell extracts were collected and subjected to immunoblot analysis.

O=C1CCC(N2Cc3cc(CNC(=O)C(F)(F)c4ccc(Cl)cc4)ccc3C2=O)C(=O)N1 (stereo not shown) [Compound 1, 2-(4-chlorophenyl)-N-((2-(2,6-dioxopiperidin-3-yl)-1-oxoisoindolin-5-yl)methyl)-2,2-difluoroacetamide]
Assay at t = 0 ([1]; Kleptose 30 mg/mL): 0.114 mg/mL | Assay at t = 4 wks without Compound 1 crystal at 25° C. ([1]; Kleptose 30 mg/mL): 0.036 mg/mL | Assay at t = 9 days with Compound 1 crystal at 25° C. ([1]; Kleptose 30 mg/mL): 0.036 mg/mL | Assay at t = 0 ([1]; Kleptose 60 mg/mL): 0.115 mg/mL | Assay at t = 4 wks without Compound 1 crystal at 25° C. ([1]; Kleptose 60 mg/mL): 0.114 mg/mL | Assay at t = 9 days with Compound 1 crystal at 25° C. ([1]; Kleptose 60 mg/mL): 0.065 mg/mL | Assay at t = 0 ([1]; Kleptose 70 mg/mL): 0.115 mg/mL | Assay at t = 4 wks without Compound 1 crystal at 25° C. ([1]; Kleptose 70 mg/mL): 0.114 mg/mL | Assay at t = 9 days with Compound 1 crystal at 25° C. ([1]; Kleptose 70 mg/mL): 0.077 mg/mL | Assay at t = 0 ([1]; Kleptose 80 mg/mL): 0.116 mg/mL | Assay at t = 4 wks without Compound 1 crystal at 25° C. ([1]; Kleptose 80 mg/mL): 0.114 mg/mL | Assay at t = 9 days with Compound 1 crystal at 25° C. ([1]; Kleptose 80 mg/mL): 0.103 mg/mL | Assay at t = 0 ([1]; Kleptose 90 mg/mL): 0.116 mg/mL | Assay at t = 4 wks without Compound 1 crystal at 25° C. ([1]; Kleptose 90 mg/mL): 0.115 mg/mL | Assay at t = 9 days with Compound 1 crystal at 25° C. ([1]; Kleptose 90 mg/mL): 0.114 mg/mL | Assay at t = 0 ([1]; Kleptose 100 mg/mL): 0.117 mg/mL | Assay at t = 4 wks without Compound 1 crystal at 25° C. ([1]; Kleptose 100 mg/mL): 0.115 mg/mL | Assay at t = 9 days with Compound 1 crystal at 25° C. ([1]; Kleptose 100 mg/mL): 0.117 mg/mL | GSPT1 degradation, Caspase-3 cleavage and Mcl-1 loss [2]: sufficient to induce robust GSPT1 degradation, Caspase-3 cleavage, and Mcl-1 loss
